Source: ChEMBL document CHEMBL1201862, “PubChem BioAssay data set” (2004)
Active and inactive are the calls of the source.

What was measured:
[1] = target: Endoplasmic reticulum aminopeptidase 2 (Homo sapiens, UniProt Q6P179); test: inhibition of ERAP2 arginine-AMC cleavage – biochemical, fluorescence plate reader, cherry-picked, set 2, selectivity assay for selective ERAP1 modulator project, dose response (AID 743320)
[2] = target: Endoplasmic reticulum aminopeptidase 1 (Homo sapiens, UniProt Q9NZ08); test: inhibition of human ERAP1 enzyme activity – biochemical, cherry-pick, set 2, plate reader, dose response (AID 743314)
Paired box protein Pax-8 = Paired box protein Pax-8 (Homo sapiens, UniProt Q06710); test: PAX8 transcriptional activity inhibition in RMG-I – RMG-I cells, luciferase, cherry-pick, dose response (AID 687027); type: functional, cell-based;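 also: luciferase reporter driven by Pax8 target thyroperoxidase promoter measured by SteadyGlo luminescence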
[3] = toxicity toward immortalized ovarian surface epithelium – cell-based, plate reader, dry powder samples, cytotoxicity control for PAX8 inhibitor project, dose response (AID 743045); type: functional
[4] = A2780 cell killing – plate reader, dry powder samples, cytotoxicity control, dose response (AID 743046); type: functional, cell-based
[5] = OVCAR-3 cell viability loss – plate reader, dry powder samples, PAX8 inhibitor project, dose response (AID 743044); type: functional, cell-based
[6] = IGROV1 cell killing – plate reader, dry powder samples, PAX8 inhibitor project, dose response (AID 743043); type: functional, cell-based; conditions: IGROV-1
[7] = tested on: Streptococcus sp. 'group A'; test: Streptococcus pyogenes SK(-)GAS viability under kanamycin – luminescence, BacTiterGlo, confirmation, counter-screen for streptokinase expression inhibitor project, dose response (AID 1900); type: functional, organism-based
Streptokinase A = target: T1, Streptokinase A (Streptococcus pyogenes serotype M1, UniProt P10520); test: viability-normalized secreted streptokinase activity reduction – plasminogen activation absorbance, OD405, dose response (AID 1914); type: functional, Streptococcus pyogenes M1 GAS;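 also: secreted streptokinase activity via plasminogen activation per viability signal from cell pellet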
T1 sequence (P10520 whole entry): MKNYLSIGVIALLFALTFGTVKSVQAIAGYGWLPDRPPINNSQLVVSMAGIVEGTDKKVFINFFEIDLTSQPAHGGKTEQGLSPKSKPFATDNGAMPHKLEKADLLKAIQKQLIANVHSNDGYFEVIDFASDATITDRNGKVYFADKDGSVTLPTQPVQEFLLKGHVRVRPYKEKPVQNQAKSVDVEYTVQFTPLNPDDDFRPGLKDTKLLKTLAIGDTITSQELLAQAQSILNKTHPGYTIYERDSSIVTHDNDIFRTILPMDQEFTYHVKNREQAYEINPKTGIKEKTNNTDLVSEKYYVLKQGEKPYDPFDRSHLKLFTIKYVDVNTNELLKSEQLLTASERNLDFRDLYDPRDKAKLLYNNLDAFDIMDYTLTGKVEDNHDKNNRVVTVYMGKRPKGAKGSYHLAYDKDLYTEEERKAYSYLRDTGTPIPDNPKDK

Streptococcus = test: GAS UMAA2166 growth inhibition – luminescence, BacTiterGlo, counter-screen for streptokinase expression inhibitor project, dose response (AID 1915); type: functional, organism-based;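 also: potency for reduction of bacterial viability or growth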
H9c2 = test: cells; type: functional, cell-based; conditions: Rattus norvegicus, H9c2, Myocardium;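 also: confirmatory concentration-response retest of ultra-high-throughput screening hits for modulation of myocardial damage; cell death induced by hydrogen peroxide oxidative stress; compound pretreatment for 60 min then peroxide exposure for 2 h; potency is for protecting the cells against peroxide damage rather than for killing them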
Transthyretin = Transthyretin (Homo sapiens, UniProt P02766); test: Luminescence-based cell-based high throughput dose response assay to identify activators of Transthyretin (TTR) transcription.; type: functional
[8] = target: Ubiquitin carboxyl-terminal hydrolase BAP1 (Homo sapiens, UniProt Q92560); test: inhibition of BAP1 ubiquitin hydrolase activity – biochemical, dose response (AID 714); type: functional
[9] = target: T2, Heat shock factor protein 1 (Mus musculus, UniProt P38532); test: enhancement of HSF1-driven luciferase signal – cell-based, NIH3T3, luminescence, dose retest, confirmation (AID 435004); type: functional;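 also: stress induced by proteasome inhibitor MG132 added 30 min after compound; luciferase reporter driven by HSF1 response element in NIH3T3 cells; actives raise luminescence as potentiators of the MG132 stress response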
T2 sequence (P38532 whole entry): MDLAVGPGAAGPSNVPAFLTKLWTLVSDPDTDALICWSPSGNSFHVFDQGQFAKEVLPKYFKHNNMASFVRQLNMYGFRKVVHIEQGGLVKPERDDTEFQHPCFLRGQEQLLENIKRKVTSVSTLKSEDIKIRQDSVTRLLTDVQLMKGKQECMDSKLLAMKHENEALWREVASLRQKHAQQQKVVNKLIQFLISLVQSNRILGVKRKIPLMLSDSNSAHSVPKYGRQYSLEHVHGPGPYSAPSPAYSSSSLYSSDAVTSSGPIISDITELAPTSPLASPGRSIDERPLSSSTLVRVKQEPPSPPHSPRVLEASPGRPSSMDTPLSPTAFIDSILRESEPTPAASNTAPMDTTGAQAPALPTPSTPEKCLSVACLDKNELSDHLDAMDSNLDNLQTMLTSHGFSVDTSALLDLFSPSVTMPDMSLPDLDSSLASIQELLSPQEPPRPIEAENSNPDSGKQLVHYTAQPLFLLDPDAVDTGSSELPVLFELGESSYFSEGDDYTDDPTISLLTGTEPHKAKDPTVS

[10] = IC50 of insulin release inhibition, rat insulinoma INS-1E line, 5 mM glucose, cell-based (AID 1117331); type: functional
cells [11] = type: functional, cell-based; conditions: INS-1E
[12] = target: Metabotropic glutamate receptor 5 (Rattus norvegicus, UniProt P31424); test: Identification of a glycine sulfonamide based non-MPEP site positive allosteric potentiator (PAM) of mGlu5 (calcium_assay).; type: functional
Beta-galactosidase = Beta-galactosidase (Escherichia coli, UniProt Q8VNN2); test: Dose response counterscreen for EBI2 assay utilizing the enzyme, b-galactosidase.; type: functional
[13] = target: G-protein coupled receptor 183 (Homo sapiens, UniProt P32249); test: SAR confirmation of small molecule antagonists of the EBI2 receptor via a luminescent beta-arrestin assa.; type: functional
[14] = target: T3, Oxysterols receptor LXR-beta (Homo sapiens, UniProt P55055); type: functional, cell-based;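 also: Cell-based luminescence dose-response assay of agonist activity at LXR, run as a confirmatory counterscreen to a daf-12 agonist screen; HEK293 cells with Gal4-LXR fusion and GAL4-driven luciferase reporter; agonist potency from rising luciferase signal of a Gal4-LXR reporter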
T3 sequence (P55055 whole entry): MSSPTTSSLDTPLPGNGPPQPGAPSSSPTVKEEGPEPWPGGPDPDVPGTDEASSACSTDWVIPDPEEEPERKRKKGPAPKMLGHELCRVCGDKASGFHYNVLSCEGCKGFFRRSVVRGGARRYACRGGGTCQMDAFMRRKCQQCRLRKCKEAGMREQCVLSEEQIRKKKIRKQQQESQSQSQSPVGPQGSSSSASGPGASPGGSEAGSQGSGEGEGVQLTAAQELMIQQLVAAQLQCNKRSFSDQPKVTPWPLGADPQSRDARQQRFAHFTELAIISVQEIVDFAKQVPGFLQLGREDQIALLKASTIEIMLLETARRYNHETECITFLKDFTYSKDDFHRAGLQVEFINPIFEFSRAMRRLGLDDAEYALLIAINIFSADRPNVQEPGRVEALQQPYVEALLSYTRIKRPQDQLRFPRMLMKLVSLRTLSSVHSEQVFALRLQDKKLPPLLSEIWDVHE

cells [15] = test: cells
[16] = target: E3 ubiquitin-protein ligase Mdm2 (Homo sapiens, UniProt Q00987); test: MDM2-luc reporter signal enhancers, multi-concentration potency testing, MDM2 ubiquitin-protein ligase inhibitor program, whole-cell format, luminescence detection, 384-well microplate (AID 1394); type: functional;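 also: MDM2 E3 inhibitors raise luminescence so EC50 is for signal enhancement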
Chain of E3 ubiquitin-protein ligase Mdm2 (Q00987 whole entry): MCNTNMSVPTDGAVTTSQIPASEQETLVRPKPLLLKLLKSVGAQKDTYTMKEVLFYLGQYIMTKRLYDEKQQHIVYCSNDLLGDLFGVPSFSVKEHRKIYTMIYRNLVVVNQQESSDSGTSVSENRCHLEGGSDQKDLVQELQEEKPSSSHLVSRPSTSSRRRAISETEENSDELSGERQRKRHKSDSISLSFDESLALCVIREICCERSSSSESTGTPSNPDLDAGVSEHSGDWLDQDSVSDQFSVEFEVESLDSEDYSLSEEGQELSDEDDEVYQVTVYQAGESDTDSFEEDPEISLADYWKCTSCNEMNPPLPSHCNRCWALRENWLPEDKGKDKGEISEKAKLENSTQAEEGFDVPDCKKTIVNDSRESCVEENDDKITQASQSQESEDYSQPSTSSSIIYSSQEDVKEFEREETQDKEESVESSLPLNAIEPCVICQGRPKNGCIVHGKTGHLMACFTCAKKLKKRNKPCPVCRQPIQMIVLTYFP

Chain of Endoplasmic reticulum aminopeptidase 2 (Q6P179 whole entry): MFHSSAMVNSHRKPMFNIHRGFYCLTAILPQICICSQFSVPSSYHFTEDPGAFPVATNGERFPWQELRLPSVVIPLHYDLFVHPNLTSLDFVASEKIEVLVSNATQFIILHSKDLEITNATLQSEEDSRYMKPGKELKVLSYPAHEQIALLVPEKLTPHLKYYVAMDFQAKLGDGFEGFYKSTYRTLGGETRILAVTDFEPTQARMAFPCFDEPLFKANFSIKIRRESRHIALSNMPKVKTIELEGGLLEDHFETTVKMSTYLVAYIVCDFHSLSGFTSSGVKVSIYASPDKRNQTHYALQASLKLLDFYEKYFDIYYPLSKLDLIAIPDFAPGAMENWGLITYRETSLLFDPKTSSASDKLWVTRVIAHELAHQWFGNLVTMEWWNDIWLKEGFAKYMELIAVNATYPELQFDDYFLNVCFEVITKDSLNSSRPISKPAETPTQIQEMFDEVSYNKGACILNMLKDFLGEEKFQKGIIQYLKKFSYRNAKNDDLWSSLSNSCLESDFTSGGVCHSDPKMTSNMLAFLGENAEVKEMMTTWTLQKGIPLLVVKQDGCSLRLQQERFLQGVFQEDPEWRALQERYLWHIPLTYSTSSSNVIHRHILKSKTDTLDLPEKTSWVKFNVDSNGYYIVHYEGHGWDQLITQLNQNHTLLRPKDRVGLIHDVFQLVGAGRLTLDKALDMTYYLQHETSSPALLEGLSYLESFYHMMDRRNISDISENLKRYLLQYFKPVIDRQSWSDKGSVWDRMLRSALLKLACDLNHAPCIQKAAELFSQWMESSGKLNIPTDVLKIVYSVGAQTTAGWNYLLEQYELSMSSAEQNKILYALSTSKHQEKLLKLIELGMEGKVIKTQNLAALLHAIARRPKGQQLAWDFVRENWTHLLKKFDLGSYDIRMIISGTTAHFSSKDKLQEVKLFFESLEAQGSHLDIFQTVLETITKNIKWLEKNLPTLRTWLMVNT
Chain of Metabotropic glutamate receptor 5 (P31424 whole entry): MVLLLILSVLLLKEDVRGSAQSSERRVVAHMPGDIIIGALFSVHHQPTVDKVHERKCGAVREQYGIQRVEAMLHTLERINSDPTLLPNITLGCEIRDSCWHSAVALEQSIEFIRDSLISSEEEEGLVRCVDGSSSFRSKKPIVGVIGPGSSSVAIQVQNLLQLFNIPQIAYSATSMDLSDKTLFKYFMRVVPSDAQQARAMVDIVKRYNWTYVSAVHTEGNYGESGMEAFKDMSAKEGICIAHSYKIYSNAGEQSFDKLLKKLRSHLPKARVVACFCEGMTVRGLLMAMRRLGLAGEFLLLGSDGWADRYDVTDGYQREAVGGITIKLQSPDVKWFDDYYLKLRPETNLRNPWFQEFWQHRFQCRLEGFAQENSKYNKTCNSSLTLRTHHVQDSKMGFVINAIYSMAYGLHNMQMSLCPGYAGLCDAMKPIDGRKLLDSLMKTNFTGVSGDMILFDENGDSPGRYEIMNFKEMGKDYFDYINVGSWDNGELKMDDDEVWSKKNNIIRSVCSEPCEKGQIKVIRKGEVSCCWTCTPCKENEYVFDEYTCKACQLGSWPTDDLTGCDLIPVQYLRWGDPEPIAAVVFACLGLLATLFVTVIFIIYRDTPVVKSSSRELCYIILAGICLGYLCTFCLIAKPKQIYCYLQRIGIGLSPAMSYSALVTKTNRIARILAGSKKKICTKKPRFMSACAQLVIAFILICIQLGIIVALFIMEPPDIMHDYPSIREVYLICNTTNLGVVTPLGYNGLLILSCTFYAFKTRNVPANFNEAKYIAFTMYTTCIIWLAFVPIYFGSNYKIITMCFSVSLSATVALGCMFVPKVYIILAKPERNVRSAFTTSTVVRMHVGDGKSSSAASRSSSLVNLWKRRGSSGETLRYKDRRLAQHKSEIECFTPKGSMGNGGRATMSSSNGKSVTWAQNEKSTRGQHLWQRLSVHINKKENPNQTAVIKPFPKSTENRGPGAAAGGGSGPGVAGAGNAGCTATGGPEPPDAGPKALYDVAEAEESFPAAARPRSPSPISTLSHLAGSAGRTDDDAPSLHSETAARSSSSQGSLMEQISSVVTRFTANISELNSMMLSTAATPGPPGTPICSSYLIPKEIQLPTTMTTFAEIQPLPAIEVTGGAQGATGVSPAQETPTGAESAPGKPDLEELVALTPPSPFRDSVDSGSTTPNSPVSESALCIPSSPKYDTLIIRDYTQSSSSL
Chain of G-protein coupled receptor 183 (P32249 whole entry, the tested form may be a part): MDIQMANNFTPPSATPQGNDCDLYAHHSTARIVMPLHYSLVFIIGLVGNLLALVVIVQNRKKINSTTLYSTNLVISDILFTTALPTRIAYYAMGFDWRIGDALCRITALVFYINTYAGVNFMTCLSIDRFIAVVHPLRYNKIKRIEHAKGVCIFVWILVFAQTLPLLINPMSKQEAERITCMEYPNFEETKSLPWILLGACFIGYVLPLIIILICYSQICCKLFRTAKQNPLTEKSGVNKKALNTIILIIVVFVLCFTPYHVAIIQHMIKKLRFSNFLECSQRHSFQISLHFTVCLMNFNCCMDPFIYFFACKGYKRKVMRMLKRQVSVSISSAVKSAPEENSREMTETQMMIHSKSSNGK
Chain of Ubiquitin carboxyl-terminal hydrolase BAP1 (Q92560 whole entry): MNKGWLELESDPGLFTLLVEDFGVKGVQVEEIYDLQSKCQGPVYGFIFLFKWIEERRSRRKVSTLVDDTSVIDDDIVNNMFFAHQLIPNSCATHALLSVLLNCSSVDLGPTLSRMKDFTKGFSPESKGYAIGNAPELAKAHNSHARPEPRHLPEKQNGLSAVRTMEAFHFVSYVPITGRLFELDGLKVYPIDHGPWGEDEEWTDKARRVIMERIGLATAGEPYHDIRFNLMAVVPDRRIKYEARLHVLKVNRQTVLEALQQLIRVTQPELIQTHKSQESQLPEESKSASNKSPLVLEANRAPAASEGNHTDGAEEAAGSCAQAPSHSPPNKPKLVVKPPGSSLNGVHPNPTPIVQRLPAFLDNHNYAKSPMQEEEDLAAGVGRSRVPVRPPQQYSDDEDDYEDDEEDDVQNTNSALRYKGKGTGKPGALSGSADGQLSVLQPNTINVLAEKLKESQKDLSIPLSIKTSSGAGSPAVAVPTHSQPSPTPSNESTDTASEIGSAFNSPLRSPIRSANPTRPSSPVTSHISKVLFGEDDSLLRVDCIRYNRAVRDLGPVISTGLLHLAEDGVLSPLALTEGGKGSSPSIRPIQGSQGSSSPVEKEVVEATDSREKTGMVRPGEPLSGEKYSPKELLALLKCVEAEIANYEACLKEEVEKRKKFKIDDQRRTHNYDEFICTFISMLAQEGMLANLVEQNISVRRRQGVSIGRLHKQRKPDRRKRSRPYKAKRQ
Chain of Endoplasmic reticulum aminopeptidase 1 (Q9NZ08 whole entry): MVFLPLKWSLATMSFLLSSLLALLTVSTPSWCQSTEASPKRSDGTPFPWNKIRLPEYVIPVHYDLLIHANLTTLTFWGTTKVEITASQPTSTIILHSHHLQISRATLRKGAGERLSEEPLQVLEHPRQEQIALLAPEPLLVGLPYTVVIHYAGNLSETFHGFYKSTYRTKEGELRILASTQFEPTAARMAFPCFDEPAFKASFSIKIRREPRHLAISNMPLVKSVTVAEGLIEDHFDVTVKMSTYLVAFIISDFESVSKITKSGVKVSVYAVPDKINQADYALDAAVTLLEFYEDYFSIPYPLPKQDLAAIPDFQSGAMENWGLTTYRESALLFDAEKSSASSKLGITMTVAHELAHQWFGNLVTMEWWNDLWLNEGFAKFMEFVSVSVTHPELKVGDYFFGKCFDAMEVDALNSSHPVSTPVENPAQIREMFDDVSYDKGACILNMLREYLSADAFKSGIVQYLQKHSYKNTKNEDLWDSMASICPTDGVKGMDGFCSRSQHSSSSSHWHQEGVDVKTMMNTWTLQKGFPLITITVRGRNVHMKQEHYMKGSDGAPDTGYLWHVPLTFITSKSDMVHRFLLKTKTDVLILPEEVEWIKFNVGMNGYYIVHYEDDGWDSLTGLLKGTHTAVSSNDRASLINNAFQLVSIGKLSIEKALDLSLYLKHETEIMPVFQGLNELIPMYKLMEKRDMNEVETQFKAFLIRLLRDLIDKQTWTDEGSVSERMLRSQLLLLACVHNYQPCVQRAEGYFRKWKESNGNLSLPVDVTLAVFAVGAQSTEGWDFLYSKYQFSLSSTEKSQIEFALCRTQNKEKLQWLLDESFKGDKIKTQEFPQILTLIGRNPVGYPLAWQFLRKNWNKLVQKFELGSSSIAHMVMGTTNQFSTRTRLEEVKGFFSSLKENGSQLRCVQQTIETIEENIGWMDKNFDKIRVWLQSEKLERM

What does the source list for CC(C)[C@@H](C(=O)N[C@@H](CCc1ccc(O)cc1)C(=O)O)N(C)C(=O)[C@H](CO)NC(=O)[C@@H](O)[C@H](N)CCCCCCCCl?
AC50 [1]: 1.47 µM (active); AC50 [2]: 0.682 µM (active)

Which AC50 (Paired box protein Pax-8) does the source give for C[C@H](CO)N1C[C@H](C)[C@H](CN(C)Cc2ccccc2)OCCCC[C@H](C)Oc2ccc(NC(=O)Nc3ccc(C(F)(F)F)cc3)cc2C1=O here?
The AC50 was 4.95 µM (active).

What about the AC50 [3] of the same compound?
Its AC50 is 50 µM (active).

And the AC50 [4]?
Its AC50 is 41.4 µM (active).

What about the AC50 [5] of the same compound?
Its AC50 is 17.6 µM (active).

And the AC50 [6]?
The AC50 was 26.9 µM (active).

For CCCNC(=O)c1ccc(N2CCC3(CC2)CC(c2ccccc2)=NO3)c(NC(=O)c2ccco2)c1, which EC50 [7] is on record?
The EC50 was 15.7 µM (active).

What about the EC50 (Streptokinase A) of the same compound?
The EC50 was > 150 µM (not active).

And the EC50 (Streptococcus)?
The EC50 was 38.2 µM (active).

And the IC50 (H9c2)?
The IC50 was 31 µM (inactive).

What about the EC50 (Transthyretin) of the same compound?
The EC50 was > 167 µM (inactive).

For O=C1CC(c2ccoc2)CC(Nc2ccccc2)=C1C(=O)Nc1ccccc1 (configuration not stated), which IC50 [8] is on record?
The IC50 was > 50 µM (not active).

What about the EC50 [9] of the same compound?
Its EC50 is > 260 µM (inactive).

With O=C(NN1CCCC1)NS(=O)(=O)c1ccc(Cl)cc1 [GLYCLOPYRAMIDE] as the compound, how does the IC50 [10] read?
The IC50 was 14.9 µM (inactive).

What about the IC50 (cells [11]) of the same compound?
The IC50 was > 33.3 µM (inactive).

For CC(C)(C)NC(=O)CN(c1ccccc1Cl)S(C)(=O)=O, which EC50 [12] is on record?
The EC50 was > 30 µM (inactive).

For O=C(/C=C/c1ccc(Br)cc1)N1CCN(Cc2ccccc2)CC1, which IC50 (Beta-galactosidase) is on record?
The IC50 was > 80 µM (inactive).

And the IC50 [13]?
The IC50 was 0.0028 µM (active).

For COc1ccc(C(=O)/N=c2\sc3ccccc3n2C)cc1, which EC50 [14] is on record?
Its EC50 is > 67.5 µM (inactive).

What about the EC50 (cells [15]) of the same compound?
The EC50 was > 67.5 µM (inactive).

With Cc1ccc(-c2nc3ccccc3c(=O)n2-c2cccnc2)cc1 as the compound, how does the EC50 [16] read?
The EC50 was 54.5 µM (not active).
